Results as given in PubChem BioAssay (NCI).
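96-well plates; 48 h exposure; 5 concentrations. Endpoints by linear interpolation between flanking doses. Not reached: highest tested concentration assigned. GI50 marks 50% less growth. The concentration for full growth arrest is given as TGI.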

Tested on: M14 melanoma
Assay: NCI tumour cell line growth inhibition, 48 h

| SMILES | TGI [µM] | GI50 [µM] |
| --- | --- | --- |
| C/C(=C\CO)CC/C=C(\C)CNc1c(F)c(F)c(F)c(F)c1F | > 100 | – |
| COC(=O)Nc1nc2ccc(S(=O)c3ccccc3)cc2[nH]1 (configuration not stated) | > 100 | 3.11 |

Tested on: HT29 colon
Assay: NCI tumour cell line growth inhibition, 48 h

| SMILES | GI50 [µM] | TGI [µM] |
| --- | --- | --- |
| Cc1cc2nc(C(Cl)Cl)nc(-c3ccc(Cl)cc3)n2n1 | 0.36 | 3.99 |
| CC1=C(C#N)C23C(=O)c4ccccc4C(O)=C2C(=O)C=CC3(O)N1Cc1ccccc1 (configuration not stated) | 43.7 | > 100 |
| C/C(=C\CO)CC/C=C(\C)CNc1c(F)c(F)c(F)c(F)c1F | – | 52.3 |
| COC(=O)Nc1nc2ccc(S(=O)c3ccccc3)cc2[nH]1 (configuration not stated) | 3.46 | 54.1 |

Tested on: MDA-MB-231 breast
Assay: NCI tumour cell line growth inhibition, 48 h

| SMILES | GI50 [µM] | TGI [µM] |
| --- | --- | --- |
| Cc1cc2nc(C(Cl)Cl)nc(-c3ccc(Cl)cc3)n2n1 | 1.23 | 4.21 |
| CC1=C(C#N)C23C(=O)c4ccccc4C(O)=C2C(=O)C=CC3(O)N1Cc1ccccc1 (configuration not stated) | 44.4 | > 100 |
| C/C(=C\CO)CC/C=C(\C)CNc1c(F)c(F)c(F)c(F)c1F | – | 40.5 |
| COC(=O)Nc1nc2ccc(S(=O)c3ccccc3)cc2[nH]1 (configuration not stated) | 7.45 | > 100 |

Tested on: MDA-MB-435
Assay: NCI tumour cell line growth inhibition, 48 h

| SMILES | GI50 [µM] | TGI [µM] |
| --- | --- | --- |
| Cc1cc2nc(C(Cl)Cl)nc(-c3ccc(Cl)cc3)n2n1 | 1.26 | 2.79 |
| CC1=C(C#N)C23C(=O)c4ccccc4C(O)=C2C(=O)C=CC3(O)N1Cc1ccccc1 (configuration not stated) | 38.6 | > 100 |
| C/C(=C\CO)CC/C=C(\C)CNc1c(F)c(F)c(F)c(F)c1F | – | 53.8 |
| COC(=O)Nc1nc2ccc(S(=O)c3ccccc3)cc2[nH]1 (configuration not stated) | 1.26 | 3.94 |

Tested on: RPMI-8226 leukemia
Assay: NCI tumour cell line growth inhibition, 48 h

| SMILES | GI50 [µM] | TGI [µM] |
| --- | --- | --- |
| Cc1cc2nc(C(Cl)Cl)nc(-c3ccc(Cl)cc3)n2n1 | 1.36 | 6.45 |
| CC1=C(C#N)C23C(=O)c4ccccc4C(O)=C2C(=O)C=CC3(O)N1Cc1ccccc1 (configuration not stated) | 34 | > 100 |
| C/C(=C\CO)CC/C=C(\C)CNc1c(F)c(F)c(F)c(F)c1F | – | 43.8 |
| COC(=O)Nc1nc2ccc(S(=O)c3ccccc3)cc2[nH]1 (configuration not stated) | 5.11 | > 100 |

Tested on: MALME-3M melanoma
Assay: NCI tumour cell line growth inhibition, 48 h

| SMILES | GI50 [µM] | TGI [µM] |
| --- | --- | --- |
| Cc1cc2nc(C(Cl)Cl)nc(-c3ccc(Cl)cc3)n2n1 | 1.48 | 2.99 |
| CC1=C(C#N)C23C(=O)c4ccccc4C(O)=C2C(=O)C=CC3(O)N1Cc1ccccc1 (configuration not stated) | 22 | 47.1 |
| C/C(=C\CO)CC/C=C(\C)CNc1c(F)c(F)c(F)c(F)c1F | – | 57.2 |
| COC(=O)Nc1nc2ccc(S(=O)c3ccccc3)cc2[nH]1 (configuration not stated) | 5.21 | > 100 |

Tested on: T-47D breast
Assay: NCI tumour cell line growth inhibition, 48 h

| SMILES | GI50 [µM] | TGI [µM] |
| --- | --- | --- |
| Cc1cc2nc(C(Cl)Cl)nc(-c3ccc(Cl)cc3)n2n1 | 2.19 | > 26.3 |
| CC1=C(C#N)C23C(=O)c4ccccc4C(O)=C2C(=O)C=CC3(O)N1Cc1ccccc1 (configuration not stated) | 25.8 | 71.6 |
| C/C(=C\CO)CC/C=C(\C)CNc1c(F)c(F)c(F)c(F)c1F | – | > 100 |
| COC(=O)Nc1nc2ccc(S(=O)c3ccccc3)cc2[nH]1 (configuration not stated) | 4.38 | > 100 |

Tested on: RXF 393 renal
Assay: NCI tumour cell line growth inhibition, 48 h

| SMILES | GI50 [µM] | TGI [µM] |
| --- | --- | --- |
| Cc1cc2nc(C(Cl)Cl)nc(-c3ccc(Cl)cc3)n2n1 | 0.764 | 2.27 |
| CC1=C(C#N)C23C(=O)c4ccccc4C(O)=C2C(=O)C=CC3(O)N1Cc1ccccc1 (configuration not stated) | 26 | > 100 |
| C/C(=C\CO)CC/C=C(\C)CNc1c(F)c(F)c(F)c(F)c1F | – | 65.3 |
| COC(=O)Nc1nc2ccc(S(=O)c3ccccc3)cc2[nH]1 (configuration not stated) | 3.28 | 26.7 |

Tested on: EKVX NSCLC
Assay: NCI tumour cell line growth inhibition, 48 h

| SMILES | GI50 [µM] | TGI [µM] |
| --- | --- | --- |
| Cc1cc2nc(C(Cl)Cl)nc(-c3ccc(Cl)cc3)n2n1 | 1.6 | 4.3 |
| CC1=C(C#N)C23C(=O)c4ccccc4C(O)=C2C(=O)C=CC3(O)N1Cc1ccccc1 (configuration not stated) | 43.6 | > 100 |
| C/C(=C\CO)CC/C=C(\C)CNc1c(F)c(F)c(F)c(F)c1F | – | 98.3 |
| COC(=O)Nc1nc2ccc(S(=O)c3ccccc3)cc2[nH]1 (configuration not stated) | 35 | > 100 |

Tested on: UACC-257 melanoma
Assay: NCI tumour cell line growth inhibition, 48 h

| SMILES | GI50 [µM] | TGI [µM] |
| --- | --- | --- |
| Cc1cc2nc(C(Cl)Cl)nc(-c3ccc(Cl)cc3)n2n1 | 2.3 | 5.49 |
| CC1=C(C#N)C23C(=O)c4ccccc4C(O)=C2C(=O)C=CC3(O)N1Cc1ccccc1 (configuration not stated) | 35 | > 100 |
| C/C(=C\CO)CC/C=C(\C)CNc1c(F)c(F)c(F)c(F)c1F | – | 47.4 |
| COC(=O)Nc1nc2ccc(S(=O)c3ccccc3)cc2[nH]1 (configuration not stated) | > 100 | > 100 |

Tested on: COLO 205 colon
Assay: NCI tumour cell line growth inhibition, 48 h

| SMILES | GI50 [µM] | TGI [µM] |
| --- | --- | --- |
| Cc1cc2nc(C(Cl)Cl)nc(-c3ccc(Cl)cc3)n2n1 | 0.603 | 2.67 |
| CC1=C(C#N)C23C(=O)c4ccccc4C(O)=C2C(=O)C=CC3(O)N1Cc1ccccc1 (configuration not stated) | 16.6 | 34.4 |
| C/C(=C\CO)CC/C=C(\C)CNc1c(F)c(F)c(F)c(F)c1F | – | 67.1 |
| COC(=O)Nc1nc2ccc(S(=O)c3ccccc3)cc2[nH]1 (configuration not stated) | 2.51 | 7.78 |

Tested on: HOP-92 NSCLC
Assay: NCI tumour cell line growth inhibition, 48 h

| SMILES | GI50 [µM] | TGI [µM] |
| --- | --- | --- |
| Cc1cc2nc(C(Cl)Cl)nc(-c3ccc(Cl)cc3)n2n1 | 1.53 | 4.66 |
| CC1=C(C#N)C23C(=O)c4ccccc4C(O)=C2C(=O)C=CC3(O)N1Cc1ccccc1 (configuration not stated) | 39.4 | > 100 |
| COC(=O)Nc1nc2ccc(S(=O)c3ccccc3)cc2[nH]1 (configuration not stated) | 9.88 | > 100 |

Tested on: UO-31 renal
Assay: NCI tumour cell line growth inhibition, 48 h

| SMILES | GI50 [µM] | TGI [µM] |
| --- | --- | --- |
| Cc1cc2nc(C(Cl)Cl)nc(-c3ccc(Cl)cc3)n2n1 | 1.42 | 3.92 |
| CC1=C(C#N)C23C(=O)c4ccccc4C(O)=C2C(=O)C=CC3(O)N1Cc1ccccc1 (configuration not stated) | 18 | > 100 |
| C/C(=C\CO)CC/C=C(\C)CNc1c(F)c(F)c(F)c(F)c1F | – | 80.8 |
| COC(=O)Nc1nc2ccc(S(=O)c3ccccc3)cc2[nH]1 (configuration not stated) | 8 | > 100 |

Tested on: TK-10 renal
Assay: NCI tumour cell line growth inhibition, 48 h

| SMILES | GI50 [µM] | TGI [µM] |
| --- | --- | --- |
| Cc1cc2nc(C(Cl)Cl)nc(-c3ccc(Cl)cc3)n2n1 | 1.85 | 5.21 |
| CC1=C(C#N)C23C(=O)c4ccccc4C(O)=C2C(=O)C=CC3(O)N1Cc1ccccc1 (configuration not stated) | 36.9 | > 100 |
| C/C(=C\CO)CC/C=C(\C)CNc1c(F)c(F)c(F)c(F)c1F | – | 85.7 |
| COC(=O)Nc1nc2ccc(S(=O)c3ccccc3)cc2[nH]1 (configuration not stated) | 12.4 | > 100 |

Tested on: SF-268 CNS
Assay: NCI tumour cell line growth inhibition, 48 h

| SMILES | GI50 [µM] | TGI [µM] |
| --- | --- | --- |
| Cc1cc2nc(C(Cl)Cl)nc(-c3ccc(Cl)cc3)n2n1 | 1.34 | 4.47 |
| CC1=C(C#N)C23C(=O)c4ccccc4C(O)=C2C(=O)C=CC3(O)N1Cc1ccccc1 (configuration not stated) | 40.3 | > 100 |
